Our source for the melting point values is a melting point compilation (Tetko et al.; mined from patent text by program, amines drawn as free bases though some values may be those of a salt).

Regarding `COC(=O)C=Cc1cc(Oc2c(Cl)cc(C(F)(F)F)cc2Cl)ccc1[N+](=O)[O-]`, the melting point was determined as 90 °C.

In turn, `COc1cccc(-c2ccc3c(c2)c(C(=O)C(=O)O)cn3Cc2ccc(C(C)(C)C)cc2)c1` displayed a melting point of 86 to 87 °C.

For the molecule `OC(Cc1ccncc1)C(Cl)(Cl)Cl` (stereo not given), the melting point lay in the range of 166 to 168 °C.

The molecule `CCn1c(=O)c2cc(C(=O)O)cn2c2cc(Cl)ccc21` registered a melting point of 322 to 326 °C.

In the case of `CCSC1(SCC)C(=O)CC2C3CCC4=CC(=O)C=CC4(C)C3(F)C(O)CC21C` (stereo not given), the melting point lay in the range of 268 to 270 °C.

Turning to `O=C1CCC(N2C(=O)c3cccc(CNC(=O)c4cc5ccccc5cn4)c3C2=O)C(=O)N1` (stereo not given), the melting point lay within 198 to 200 °C.

On to `CN1C(=O)CCC2=C1CCc1cccc(F)c12`, for which the melting point was 75 to 76 °C.

`CCC(CC)NC(=O)Nc1cc(-c2c(-c3ccc(F)c(C)c3)nc3cccnn23)ccn1`: the melting point fell in the range of 187 to 188 °C.

The molecule `O=C(O)CC(O)c1ccc(-c2ccccc2Cl)o1` (stereo not given) had a melting point of 53 to 55 °C.

The molecule `CCCC(=O)c1cc2c(=O)c(C(=O)OCC)cn(CC)c2cc1C` displayed a melting point of 145 to 146 °C.

Molecule `COC(=O)N=C(NC(=O)NC1CCCCC1)OC` came in with a melting point of 79 to 80.5 °C.

As to `COc1ccc(-c2cc3cc(F)c(F)cc3[nH]2)cc1NS(=O)(=O)c1cccs1`, the melting point was 211 to 213 °C.

In turn, `CC1CC2Oc3ccc(Cl)cc3C(=O)N2O1` (stereo not given) had a melting point of 147 to 151 °C.

Regarding `CC(=O)Oc1c(C(C)(C)C)cc(C#N)c(C)c1C(=O)Nc1ccc(C#N)cc1C(F)(F)F`, the melting point was in the range of 171 to 172 °C.

With `On1c(-c2ccccc2)c[nH]c1=S`, the melting point is 191 °C.

In the case of `COc1ccc(C(=O)c2c(-c3ccc(OCCN4CCCC4)cc3)sc3cc(OCc4ccccc4)ccc23)cc1OC`, the melting point fell in the range of 74 to 77 °C.

With `CCC(C=O)c1ccc(S(C)(=O)=O)cc1` (stereo not given), the melting point is 202 to 204 °C.

Turning to `COc1cc(OC)nc(Oc2cccc3c2C(=O)OC3C#N)n1` (stereo not given), the melting point is 157 to 159 °C.

`C=CC(C)=CC(=CC)NCc1ccc2nc(NC3CCN(C)CC3)n(Cc3nc(C)ccc3O)c2c1` gave a melting point of 141 °C.

Molecule `CNC(=S)NCC1CC(c2ccc(Cl)cc2)=NO1` (stereo not given) had a melting point of 131 to 133 °C.

In the case of `CC(=O)Nc1nc2c(s1)-c1c(cnn1-c1ccc(C(=O)N3CCC(NC(=O)Cc4ccccc4)CC3)cc1)CC2`, the melting point is 271 to 272 °C.

Molecule `CN(Cc1ccc(CCn2cnc3cc(-c4ccc(Cl)cc4)sc3c2=O)cc1)S(C)(=O)=O` registered a melting point of 230 to 232 °C.

`CC(=O)Nc1cc(N(CCO)CCO)ccc1N=Nc1snc(C)c1C#N` gave a melting point of 188 to 189 °C.

Take `CC(=O)c1oc2ccccc2c1NC(=O)/C(C#N)=C(/C)O`: the melting point was in the range of 206 to 208 °C.

For `Clc1ccnc(-n2ccnc2)n1`, the melting point lay within 138 to 139 °C.

`COc1cn(-c2ccc(-n3cccn3)cc2F)nc(-c2ccnn2-c2ccccc2)c1=O`: the melting point was 214 to 216 °C.

In the case of `Cc1onc(-c2ccc(C(F)(F)F)cc2)c1CO`, the melting point was in the range of 72 to 73 °C.

In the case of `Cc1nc(-c2cccc(-c3nc4sccn4c3-c3ccnc(N[C@@H]4CCCN(C(=O)OC(C)(C)C)C4)n3)c2)no1`, the melting point lay in the range of 110 to 112 °C.

For the molecule `Cc1ccnc(C(c2cc(F)ccc2F)S(=O)(=O)c2ccc(Cl)cc2)c1` (stereo not given), the melting point is 116 to 117 °C.

The molecule `CC(=O)NC[C@H]1CN(c2ccc(C3=CCN(C=O)CC3)c(F)c2)C(=O)O1` showed a melting point of 148 to 151 °C.

As for `COC(=O)c1sc2cc(O)ccc2c1C`, the melting point was in the range of 174 to 176 °C.

`CCCCN(Cc1ccc2cc(O)ccc2c1)C(=O)c1c(C)oc2ccccc12`: the melting point fell in the range of 126 to 128 °C.

As for `Cc1csc(NC(=O)N(C)C)n1`, the melting point was 97 to 98 °C.

`CCCCN(CCCC)c1ccc(C(=O)c2ccccc2C(=O)O)cc1` gave a melting point of 171 to 172 °C.

Molecule `COc1ccccc1[C@H]1CC[C@@H](c2ccccc2)N1C(=O)CNC(=O)Nc1cccc(CC(=O)O)c1` (racemic) came in with a melting point of 140 °C.

In the case of `O=C(O)c1ccc(NCc2sc(Cl)cc2Cl)cc1`, the melting point lay in the range of 169 to 170 °C.

For `O=c1[nH]c2cscc2c(=O)n1CCN1CCC(=C(c2ccc(F)cc2)c2ccc(F)cc2)CC1`, the melting point is 204 to 206 °C.

As for `CC#CCC(CC#CC)(C(=O)O)S(=O)(=O)c1ccc(OC)cc1`, the melting point is 141 to 143 °C.

In turn, `CCCCN=C(N)Nc1nc(C)cc(C)n1` gave a melting point of 185 °C.

Molecule `CCN(C(=O)n1nnc2cc(C)cc(C)c21)c1ccccc1` came in with a melting point of 90 °C.

The molecule `CC[C@@H](c1ccccc1)N(Cc1ccc(C(=O)NCC(=O)O)cc1)S(=O)(=O)c1ccc(Cl)cc1` returned a melting point of 136 to 139 °C.

`Nc1cccnc1CCCCNc1ncc(Cc2cccnc2)c(=O)[nH]1` registered a melting point of 130 to 132 °C.

In turn, `COC(=O)C(C#N)c1ccccc1[N+](=O)[O-]` (stereo not given) came in with a melting point of 58 to 60 °C.

Take `Cn1nc2cccc(OCCF)c2c1S(N)(=O)=O`: the melting point fell in the range of 178 to 180 °C.

`COc1cc2c(cc1O)CCN(Cc1cccnc1)C2` yielded a melting point of 165 to 166 °C.

As to `CC(=O)Nc1c(C(=O)c2ccc(OC(F)(F)F)cc2)[nH]c2cc(Cl)ccc12`, the melting point was in the range of 213 to 214 °C.

In turn, `COc1ccccc1-n1cnc2c(C(N)=O)nc(Nc3cccc(O)c3)nc21` registered a melting point of 155 to 157 °C.

For the molecule `COC(=O)CNS(=O)(=O)c1ccc(N2CCC(NC[C@H](O)c3ccc(O)c(NS(C)(=O)=O)c3)CC2)cc1`, the melting point is 123 to 125 °C.

Turning to `Cc1noc(NS(=O)(=O)c2ccccc2-c2ccc(-c3nccs3)cc2)c1C`, the melting point was in the range of 87 to 97 °C.

`CNc1c([N+](=O)[O-])c(Br)nn1C` showed a melting point of 185 °C.

`COC(=O)c1ccc(COC2OC(CO)C(O)C(O)C2O)o1` (stereo not given) showed a melting point of 72 °C.

`Cc1cccc(C(=O)C(=O)c2ccccc2)c1C` displayed a melting point of 61.5 to 62.5 °C.

In the case of `COc1cc(Br)nc(C(=O)O)c1OCc1ccccc1`, the melting point lay in the range of 134 to 135 °C.

Turning to `Nc1nc(NCCNCC(O)COc2ccccc2)c2ccccc2n1` (stereo not given), the melting point was 152 to 156 °C.

Take `CNC(=S)NCCCSc1nnnn1C`: the melting point is 99 to 101 °C.

On to `COc1cc(CN(C)Cc2ccccc2)ccc1NC(=O)Nc1cnc(C)cn1`, for which the melting point lay within 142 to 143 °C.

`COc1cc2c(cc1C(C)=O)sc1ccccc12` showed a melting point of 163 to 165 °C.

For the molecule `CCOC(=O)C1=C(C)NC(N=CCN(C)C)=C(C(=O)OCC)C1c1cccc([N+](=O)[O-])c1` (stereo not given), the melting point was determined as 172 °C.

Take `Cc1c(N(C)C)c(F)cc2c(=O)[nH]c(=O)n(C3CC3)c12`: the melting point is 238 to 239 °C.

`COc1ccc(C2=NN(C(=O)c3cccnc3)CC2)c(OC)c1`: the melting point fell in the range of 112 to 113 °C.

The molecule `O=C(NCC12CC3CC(CC(C3)C1)C2)c1cc(-c2ncccc2OCc2nnn[nH]2)ccc1Cl` gave a melting point of 122 to 126 °C.

Molecule `Oc1ccc(N2CCN(c3ccc4ccccc4n3)CC2)cc1` had a melting point of 198 °C.

Molecule `COC(=O)c1ccc(NCc2ccc(F)cc2)cn1` yielded a melting point of 107 to 108 °C.

On to `CC(F)(F)S(=O)(=O)c1c(C(N)=S)nn(-c2c(Cl)cc(C(F)(F)F)cc2Cl)c1N`, for which the melting point was 228 to 229 °C.

`CCC1NCCc2ccc(NC(=N)c3cccs3)cc21` (stereo not given) yielded a melting point of 142 to 144 °C.

With `O=c1[nH]c2ccc(S(=O)(=O)N(CCO)CCO)cc2[nH]c1=O`, the melting point is 272 to 276 °C.

As for `c1ccc(-c2ccc(-c3cnc(-c4ccccc4)[nH]3)cn2)cc1`, the melting point is 206 °C.

Regarding `O=C(O)c1ccc(COc2ccc3cc(-c4ccc(-c5ccccc5)[nH]4)ccc3c2)c(C(=O)O)c1`, the melting point lay within 289 to 291 °C.

With `CCOCCC(=Nc1ccc(Cl)cc1C(F)(F)F)n1ccnc1`, the melting point lay in the range of 61 to 62 °C.

For `NS(=O)(=O)c1ccc(-n2ncc(F)c2-c2ccccc2)cc1`, the melting point was 194 °C.

As for `CCCCCCCCCOC(=O)c1cc(-c2csc(-c3ccc(OCC)c(OCC)c3)n2)ccc1O`, the melting point is 67 to 68 °C.

In turn, `CS(=O)(=O)Nc1ccc2c(c1)C(=O)C1(CC1)O2` had a melting point of 152 to 154 °C.

Turning to `O=C1CNc2ncc(-c3cccnc3)cc2N1Cc1c(Cl)cccc1Cl`, the melting point is greater than 200 °C.

In turn, `CNC(=O)c1ccc(-c2cnc3oc(=O)n(Cc4cccc(OC)c4)c3n2)cc1` gave a melting point of 168 to 169 °C.

In the case of `COc1ccnc(CSc2nc3cc(OC(F)(F)C(F)Cl)ccc3[nH]2)c1` (stereo not given), the melting point is 120 °C.

Regarding `C[C@@H](n1cnc2cc(N)ccc2c1=O)[C@](O)(Cn1cncn1)c1ccc(F)cc1F`, the melting point lay in the range of 103 to 109 °C.

Molecule `O=S(=O)(c1ccc(Cl)cc1)C(CCSCCO)c1cc(F)ccc1F` (stereo not given) displayed a melting point of 108 to 110 °C.

Consider `O=C(O)/C=C/c1ccc(-c2nc3c(=O)n(CCC4CCCCC4)c(=O)n(CCC4CCCCC4)c3[nH]2)cc1`, for which the melting point is greater than 250 °C.

`CC(=O)OC[C@H]1OC(O)(Cl)[C@H](NC(=O)c2cccnc2)[C@@H](OC(C)=O)[C@@H]1OC(C)=O` (stereo not given in full) had a melting point of 175 to 176 °C.

With `CCOC(=O)C1=Cc2cc(I)ccc2OC1C(F)(F)F` (stereo not given), the melting point was 105 to 106 °C.

Turning to `COC(=O)c1nc(C)c(-c2ccccc2)nc1N`, the melting point was found to be 162 °C.

Molecule `Cc1nc2c(O[C@@H]3c4ccccc4C[C@H]3O)cc(C(=O)NC3CC3)cc2n1C` (relative stereo) gave a melting point of 148 to 149 °C.

Turning to `C1=Cc2ccccc2OC1`, the melting point was in the range of 48 to 51 °C.

Molecule `CSc1ccc(C(=O)Cc2ccccc2)cc1F` yielded a melting point of 71 to 72 °C.

Consider `Cc1nnc2n1-c1ccc(C#CCN3C(=O)CCc4ccccc43)cc1C(c1ccccc1F)=NC2`, for which the melting point is 236 to 239 °C.

Turning to `COc1ccc2c(C)c(Cl)ccc2c1C(F)(F)F`, the melting point was in the range of 102 to 103 °C.

`Cc1cccc(N(C)c2nc(Cl)nc(Cl)n2)c1C` displayed a melting point of 140 to 141 °C.

Molecule `CC(=O)c1c[nH]c(CO)n1` had a melting point of 147 to 148 °C.

The molecule `Nc1ccc(S(=O)(=O)N2CCCC(c3ccc(Cl)cc3)=N2)cc1` came in with a melting point of 205 to 206 °C.

As to `CCCc1c(OCC(=O)OCC)ccc(C(C)=O)c1O`, the melting point fell in the range of 61 to 64 °C.

For orientation: melting point means the temperature, or range, at which the solid turns liquid.
